The values below come from patent publication US20250051345A1, “PYRIDINE-3-CARBOXYLATE COMPOUNDS AS CAV1.2 ACTIVATORS” (Novartis AG, priority 2021, published 2025).

SMILES strings stand for the structures. pEC50: −log10 of the molar value.

For data set [1], the target named is T1, human Cav1.2 (Homo sapiens (Human), UniProt Q13936). Briefly: Sophion QPatch dose-response assay, whole-cell voltage clamp of barium currents in the Cav1.2-HEK293 (AUX) cell line. It counts as cell-based. Conditions: for QPatch Emax: maximal fold change of peak inward current. The method, then: (§1) Clonal isolation was achieved under Neomycin selection.
(§2) Each experimental run uses 1.5 mL of cells.
(§3) The protocol had eight liquid periods. […] The protocol had four liquid periods.

For data set [2], the target named is T1, human Cav1.2. Description: QPatch channel biophysics assay (V1/2 voltage shift, tau of inactivation) in the Cav1.2-HEK293 (AUX) cell line. It counts as cell-based. The method, then: as §1, §2, §3
Data set [3] can be described thus: Compound exposure in brain (cerebellum) and blood of wild-type mice. It counts as in vivo, mouse. The conditions noted are these: C57BL/6J male mice, i.p., one hour after administration. An excerpt: (§4) Compound administration and brain tissue collection.
Quantification of compound exposure.

Data set [4] has as its system cFos mRNA. Description: cFos mRNA induction in cortex of wild-type mice (PK-PD). It counts as in vivo, mouse. Conditions: 3 mg/kg ip, one hour after administration. How it is done: as §4
Quantification of cFos mRNA induction. Tissue homogenization was performed using TissueLyser system for 96 well plates (Qiagen). First, frozen cortical samples were thawed, removed from RNAlater, and placed into TissueLyser tubes along with Buffer RLT containing 0.5% Reagent DX and one 5 mm TissueLyser metal bead. The TissueLyser tubes were loaded into a TissueLyser II tissue homogenizer for 3 rounds of homogenization, with each round lasting 5 minutes at 30 Hz bead-beating frequency. Total RNA was purified from the homogenate using RNeasy 96 Plus kit (Qiagen), RNA concentration and A260/A280 ratio were quantified via the Nanodrop (ThermoFisher), and all samples were normalized to 100 ng/μl concentration. […]
Quantitative PCR was performed on the cDNA samples using Quantitect Multiplex RT-PCR kit (Qiagen) in a 384-well assay format. […] On the ViiA7 Real-Time PCR system (ThermoFisher), the samples were heated to 95° C. for 15 minutes then cycled between 94° C. for 45 seconds and 60° C. for 45 seconds for 45 cycles. cFos Ct values were exported, normalized to GAPDH Ct values, and converted to relative fold change in expression using the delta-delta Ct relative quantification method. cFos fold changes between compound treatments and vehicle were analyzed by one-way ANOVA, followed by Tukey's post-hoc comparisons.

Setting [5] is: 6-point dose response, 10 determinations per concentration, n = 1 unless stated.
Setting [6] is: shift of half-way channel activation voltage V1/2.
The mark [7] stands for this setting: comparative examples, single enantiomers of reported racemates.

T1 sequence (Q13936 whole entry): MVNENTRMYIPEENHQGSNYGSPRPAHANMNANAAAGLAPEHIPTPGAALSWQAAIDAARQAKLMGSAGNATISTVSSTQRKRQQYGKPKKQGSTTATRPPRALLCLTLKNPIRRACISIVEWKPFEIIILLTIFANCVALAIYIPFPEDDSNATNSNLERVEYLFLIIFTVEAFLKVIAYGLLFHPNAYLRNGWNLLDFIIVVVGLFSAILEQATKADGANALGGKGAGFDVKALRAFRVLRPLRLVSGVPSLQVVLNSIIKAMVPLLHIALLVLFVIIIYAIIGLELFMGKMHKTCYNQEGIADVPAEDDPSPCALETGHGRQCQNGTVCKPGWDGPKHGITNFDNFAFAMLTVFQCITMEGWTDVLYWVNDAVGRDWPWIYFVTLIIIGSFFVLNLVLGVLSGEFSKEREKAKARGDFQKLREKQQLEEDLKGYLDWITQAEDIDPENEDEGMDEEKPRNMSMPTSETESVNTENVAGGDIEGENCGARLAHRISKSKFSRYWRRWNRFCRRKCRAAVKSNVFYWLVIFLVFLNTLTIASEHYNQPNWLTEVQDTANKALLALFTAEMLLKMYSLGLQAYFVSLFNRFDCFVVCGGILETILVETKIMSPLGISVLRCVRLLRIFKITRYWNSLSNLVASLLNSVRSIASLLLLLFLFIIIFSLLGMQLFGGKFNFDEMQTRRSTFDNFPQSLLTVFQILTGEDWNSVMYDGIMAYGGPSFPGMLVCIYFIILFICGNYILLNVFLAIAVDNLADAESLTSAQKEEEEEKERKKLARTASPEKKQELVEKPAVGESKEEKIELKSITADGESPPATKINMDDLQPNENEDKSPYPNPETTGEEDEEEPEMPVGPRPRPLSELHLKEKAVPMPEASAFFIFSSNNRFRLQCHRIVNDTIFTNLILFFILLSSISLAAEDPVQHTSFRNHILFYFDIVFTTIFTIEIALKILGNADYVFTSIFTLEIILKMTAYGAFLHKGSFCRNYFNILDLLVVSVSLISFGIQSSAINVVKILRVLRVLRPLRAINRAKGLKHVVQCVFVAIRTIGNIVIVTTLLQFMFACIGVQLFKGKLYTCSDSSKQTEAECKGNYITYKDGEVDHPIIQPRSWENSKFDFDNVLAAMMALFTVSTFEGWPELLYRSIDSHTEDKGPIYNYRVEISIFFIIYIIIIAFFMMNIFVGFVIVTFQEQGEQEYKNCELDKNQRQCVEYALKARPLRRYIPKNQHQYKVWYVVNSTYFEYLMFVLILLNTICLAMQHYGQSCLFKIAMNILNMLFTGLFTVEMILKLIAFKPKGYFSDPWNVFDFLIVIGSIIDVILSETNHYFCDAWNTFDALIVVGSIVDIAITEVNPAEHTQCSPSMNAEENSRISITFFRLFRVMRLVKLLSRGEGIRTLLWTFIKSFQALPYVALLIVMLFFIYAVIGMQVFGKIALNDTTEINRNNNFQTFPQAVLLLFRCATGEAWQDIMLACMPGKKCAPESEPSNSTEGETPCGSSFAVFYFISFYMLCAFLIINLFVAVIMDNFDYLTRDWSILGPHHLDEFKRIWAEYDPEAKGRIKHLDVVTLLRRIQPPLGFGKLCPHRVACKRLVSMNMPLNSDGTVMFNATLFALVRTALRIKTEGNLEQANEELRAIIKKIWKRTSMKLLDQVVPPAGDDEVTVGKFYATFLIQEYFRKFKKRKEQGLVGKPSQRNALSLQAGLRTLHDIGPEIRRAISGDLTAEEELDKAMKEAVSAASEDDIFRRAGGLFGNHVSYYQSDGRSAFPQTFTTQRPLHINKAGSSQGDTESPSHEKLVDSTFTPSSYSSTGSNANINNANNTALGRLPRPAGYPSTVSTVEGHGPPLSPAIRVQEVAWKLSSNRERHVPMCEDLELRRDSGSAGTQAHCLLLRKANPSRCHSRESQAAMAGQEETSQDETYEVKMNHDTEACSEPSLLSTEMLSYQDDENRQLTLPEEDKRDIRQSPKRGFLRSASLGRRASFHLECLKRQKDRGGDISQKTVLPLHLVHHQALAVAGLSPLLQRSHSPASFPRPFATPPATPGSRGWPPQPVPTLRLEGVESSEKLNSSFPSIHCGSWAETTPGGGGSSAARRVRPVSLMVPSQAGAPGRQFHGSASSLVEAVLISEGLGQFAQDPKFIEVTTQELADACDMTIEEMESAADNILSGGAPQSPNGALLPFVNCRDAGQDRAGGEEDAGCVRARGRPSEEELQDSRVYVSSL

In turn, `COC(=O)C1=C(C)NC2=C(C(=O)OC2)[C@H]1c1cncc(F)c1[C@@H](C)F` (single isomer, unassigned) [Example 1, methyl(S)-4-(5-fluoro-4-((R)-1-fluoroethyl)pyridin-3-yl)-2-methyl-5-oxo-1,4,5,7-tetrahydrofuro [3,4-b]pyridine-3-carboxylate or methyl(S)-4-(5-fluoro-4-((S)-1-fluoroethyl)pyridin-3-yl)-2-methyl-5-oxo-1,4,5,7-tetrahydrofuro [3,4-b]pyridine-3-carboxylate] had a pEC50 in data set [1] (setting [5]) of 6.66. Also, the “QPatch Emax” value in data set [1] was 3.3. In addition, the Biophysics voltage shift in data set [2] (setting [6]) was −6.6 mV. The “Brain: blood Ratio” value in data set [3] worked out at 0.2. In addition, in data set [4], the “%↑ cFOS mRNA cortex” value is 174%.
`COC(=O)C1=C(C(F)F)NC2=C(C(=O)OC2)[C@H]1c1cncc(F)c1[C@@H](C)F` (single isomer, unassigned) [Example 6, methyl 2-(difluoromethyl)-4-(5-fluoro-4-(1-fluoroethyl)pyridin-3-yl)-5-oxo-1,4,5,7-tetrahydrofuro [3,4-b]pyridine-3-carboxylate] gave a pEC50 in data set [1] (setting [5]) of 6.60. Moreover, the “QPatch Emax” value in data set [1] is given as 2.5. Besides, the Biophysics voltage shift in data set [2] (setting [6]) is −5.6 mV.
Consider `COC(=O)C1=C(C)NC(C)=C([N+](=O)[O-])[C@H]1c1ccccc1C(F)(F)F` [Comparative Example 1, BayK8644], for which the “QPatch Emax” value in data set [1] (comparative examples) turned out to be 3.9.
In data set [1] (setting [7]), `CCOC(=O)C1=C(C)NC2=C(C(=O)OC2)[C@H]1c1ccccc1OCc1ccccc1` [Comparative Example 2, RS30124] gave a pEC50 of 6.35. Besides, the “QPatch Emax” value in data set [1] (comparative examples) stood at 4.3. In addition, the Biophysics voltage shift in data set [2] (comparative examples) is given as −15.4 mV.
The compound `CCOC(=O)C1=C(C)NC2=C(C(=O)OC2)[C@H]1c1ccccc1OC(F)F` [Comparative Example 3, CGP028392] gave a pEC50 in data set [1] (setting [7]) of 6.55. In data set [1] (comparative examples), the “QPatch Emax” value is recorded as 2.2. Moreover, in data set [2] (comparative examples), the Biophysics voltage shift is reported as −6.7 mV.
Consider `COC(=O)C1=C(C)NC2=C(C(=O)OC2)C1c1ccccc1C` (stereo not shown) [Comparative Example 4], for which the pEC50 in data set [1] (setting [7]) was 5.65. Besides, the “QPatch Emax” value in data set [1] (comparative examples) amounted to 1.4.
With `COC(=O)C1=C(C)NC2=C(C(=O)OC2)C1c1ccccc1C(F)(F)F` (stereo not shown) [Comparative Example 5], in data set [1] (setting [7]), the pEC50 was 6.44. The “QPatch Emax” value in data set [1] (comparative examples) was found to be 1.4. Moreover, the Biophysics voltage shift in data set [2] (comparative examples) was −4.3 mV.
`COC(=O)C1=C(C)NC2=C(C(=O)OC2)C1c1ccccc1OC(F)F` (stereo not shown) [Comparative Example 6]: the negative-log EC50 (pEC50) in data set [1] (setting [7]) is 6.29. In data set [1] (comparative examples), the “QPatch Emax” value came out at 1.7. In data set [2] (comparative examples), the Biophysics voltage shift is −7.1 mV.
Compound `CCOC(=O)C1=C(C)NC2=C(C(=O)OC2)C1c1ccccc1C(F)(F)F` (stereo not shown) [Comparative Example 7] showed a pEC50 in data set [1] (setting [7]) of 6.03. In addition, in data set [1] (comparative examples), the “QPatch Emax” value was determined as 1.9.
Compound `COC(=O)C1=C(CF)NC2=C(C(=O)OC2)[C@H]1c1cncc(F)c1[C@@H](C)F` [Example 2, methyl (R)-4-(5-fluoro-4-((R)-1-fluoroethyl)pyridin-3-yl)-2-(fluoromethyl)-5-oxo-1,4,5,7-tetrahydrofuro [3,4-b]pyridine-3-carboxylate] had a pEC50 in data set [1] (setting [5]) of 7.21. The “activity in the Sophion QPatch assay relative to the enantiomer” value in data set [1] (comparison of stereoisomers) is “higher activity than its corresponding enantiomer”. Besides, the “QPatch Emax” value in data set [1] is recorded as 2.2. Also, the Biophysics voltage shift in data set [2] (setting [6]) is recorded as −5.9 mV. For the same compound, the Kp at 1 h in data set [3] (mouse, brain (cerebellum) / blood, ip, 3 mg/kg, read-out: Brain: blood Ratio) is 1.5. For the same compound, in data set [4], the “%↑ cFOS mRNA cortex” value is listed as 384%.
